Test results: US9540336B2, “Therapeutic agents” (priority 2011, dated 2017)
≈ marks a conversion by molar mass, not a printed value. Where “and” joins values, the source holds several entries; their conditions need not be identical. Equal values may be shown once. Entries after “also recorded” stand apart in the source; their conditions may differ.

Key:
[1] = system: Staphylococcus aureus MRSA; test: Antimicrobial activity (MIC); type: cell-based
[2] = system: P. denitrificans membranes; test: Restoration of NADH oxidation and ROS production, P. denitrificans membranes; type: biochemical, Paracoccus denitrificans
Bacillus thuringiensis = test: Antimicrobial activity (MIC); type: cell-based
Enterococcus faecalis = test: Antimicrobial activity (MIC); type: cell-based
[3] = Solubility and cationic/uncharged species in detergents (Triton X-100, Na-lauroyl sarcosine)
M. smegmatis mc2 155 = test: M. smegmatis growth inhibition (colony counts on 7H9 agar); type: cell-based; settings: for effect of antioxidants (α-tocopherol, 4-hydroxy-TEMPO, N-acetylcysteine) on growth inhibition: 0.5 μg/ml CFZ or 10 μg/ml INH
P. aeruginosa membranes = test: Restoration of NADH oxidation and ROS production, P. aeruginosa membranes; type: biochemical, Pseudomonas aeruginosa
E. coli membranes = test: Restoration of NADH oxidation and ROS production, E. coli membranes; type: biochemical
[4] = biological target: recombinant M. tuberculosis NDH-2 (Mycobacterium tuberculosis, UniProt P95160); type: biochemical
[5] = Solubility in buffered water as a function of pH (centrifugation, spectroscopy); type: physicochemical
[6] = cited from earlier work
Enterococcus faecium = test: Antimicrobial activity (MIC); type: cell-based
S. aureus membranes = test: Restoration of NADH oxidation and ROS production, S. aureus membranes; type: biochemical, Staphylococcus aureus
[7] = system: submitochondrial membranes from S. cerevisiae; test: Restoration of NADH oxidation and ROS production, S. cerevisiae submitochondrial membranes; type: biochemical
M. smegmatis membranes [8] = test: ROS production by M. smegmatis log-phase membranes (Amplex Red/HRP/superoxide dismutase); type: biochemical
rat mitochondria = test: Restoration of NADH oxidation, rat mitochondria; type: biochemical; settings: KCN-inhibited rat mitochondria
M. smegmatis membranes [9] = type: biochemical
M. smegmatis membranes [10] = test: Reduction and reoxidation (redox cycling) with M. smegmatis membranes and NADH; type: biochemical
[11] = system: E. faecalis membranes (NDH-2); test: E. faecalis membranes: NADH-Q0 reductase activity and ROS production; type: biochemical

recombinant M. tuberculosis NDH-2, sequence (P95160 whole entry, looked up): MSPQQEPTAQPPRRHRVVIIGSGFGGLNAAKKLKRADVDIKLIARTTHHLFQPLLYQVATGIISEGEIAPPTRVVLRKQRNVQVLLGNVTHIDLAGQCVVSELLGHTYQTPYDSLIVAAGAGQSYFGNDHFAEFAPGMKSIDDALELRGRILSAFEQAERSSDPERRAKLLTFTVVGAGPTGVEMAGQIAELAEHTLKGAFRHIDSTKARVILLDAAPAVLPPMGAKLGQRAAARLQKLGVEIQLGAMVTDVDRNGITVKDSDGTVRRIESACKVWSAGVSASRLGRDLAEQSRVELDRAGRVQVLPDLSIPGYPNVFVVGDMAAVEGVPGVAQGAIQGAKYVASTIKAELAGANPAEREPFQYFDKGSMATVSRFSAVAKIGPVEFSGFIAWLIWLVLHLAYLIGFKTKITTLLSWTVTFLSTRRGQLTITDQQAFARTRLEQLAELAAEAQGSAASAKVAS

## CC(C)N=c1cc2n(-c3ccc(Cl)cc3)c3ccccc3nc-2cc1Nc1ccc(Cl)cc1 [CFZ, 3-(4-chloroanilino)-10-(4-chlorophenyl)-2,10-dihydro-2-(isopropylimino)-phenazine]
[1]
  MIC: 2.5 µM (≈ 1.18 µg/mL)
[2]; KCN-inhibited P. denitrificans membranes
  restoration of NADH oxidation: did not exhibit significant CFZ-mediated NADH oxidation or ROS production; also recorded: little, if any, restoration of NADH oxidation
[2]; P. denitrificans membranes
  ROS production: did not exhibit significant CFZ-mediated NADH oxidation or ROS production
Bacillus thuringiensis
  MIC: 5 µM (≈ 2.37 µg/mL)
Enterococcus faecalis
  MIC: 10 µM (≈ 4.73 µg/mL)
[3]; buffered Triton X-100 detergent solution
  pKa: 6.8
[3]; pH 3.5, aqueous with cosolvent or surfactant or cyclodextrin
  solubility: ≥ 50 µM
[3]; pH 5, aqueous with cosolvent or surfactant or cyclodextrin
  solubility: ≥ 50 µM
M. smegmatis mc2 155
  effect of antioxidants (α-tocopherol, 4-hydroxy-TEMPO, N-acetylcysteine) on growth inhibition: nullified the growth inhibitory activity; also recorded: prevented
M. smegmatis mc2 155; 0.5 μg/ml CFZ or more, ≧4 days, control 670±100 colonies
  colony formation of M. smegmatis on agar: undetectable; also recorded: Virtually no colonies
P. aeruginosa membranes; KCN-inhibited P. aeruginosa membranes
  restoration of NADH oxidation: did not exhibit significant CFZ-mediated NADH oxidation or ROS production; also recorded: little, if any, restoration of NADH oxidation
P. aeruginosa membranes; P. aeruginosa membranes
  ROS production: did not exhibit significant CFZ-mediated NADH oxidation or ROS production
E. coli membranes; E. coli membranes
  ROS production: did not exhibit significant CFZ-mediated NADH oxidation or ROS production
E. coli membranes; KCN-inhibited E. coli membranes
  restoration of NADH oxidation: did not exhibit significant CFZ-mediated NADH oxidation or ROS production; also recorded: no restoration of NADH oxidation; also recorded: little, if any, restoration of NADH oxidation
[4]
  ROS generation with purified NDH-2 and NADH: generation of ROS
[4]; pH 6.5
  reduction by purified NDH-2: purified NDH-2 reduces CFZ
[5]; 50 mM MOPS/Na+ pH 6.5, 2.0 mM MgCl2, 1.18 μg/ml, 40 min
  fraction of CFZ remaining in solution: ~70%
[5]; above pH 7.5
  soluble compound in water: not detectable
[5]; buffered water (0.1 M buffer), 23 °C, pH 7, aqueous buffer, kinetic from dmso stock, neutral pH, 50 μM added, overnight, centrifuged
  solubility: < 2 µM
[5]; pH 3.5
  solubility in water: virtually all the drug remained in the supernatant
[5]; pH 6.5
  soluble compound in water: barely detectable
[5]; reaction buffer pH 6.5, 1.2 μg/ml, 40-min incubation
  fraction of CFZ remaining soluble: About two-thirds
[6]; Kovacic et al. 1989
  redox potential Em, cationic species: −180 mV
  redox potential Em, uncharged species: −950 mV
[6]; unclear origin
  pKa (commonly quoted): 8.5
Enterococcus faecium
  MIC: 10 µM (≈ 4.73 µg/mL)
S. aureus membranes; KCN-inhibited S. aureus membranes
  restoration of NADH oxidation: significant restoration of NADH oxidation
S. aureus membranes; S. aureus membranes
  ROS production: able to oxidize NADH and generate ROS
  inhibitory effect of high levels on mediated NADH oxidation: inhibitory
[7]; KCN-inhibited S. cerevisiae submitochondrial membranes
  restoration of NADH oxidation: significant restoration of NADH oxidation
[7]; S. cerevisiae submitochondrial particles
  ROS production: able to oxidize NADH and generate ROS
M. smegmatis membranes [8]; log-phase membranes, NADH, 0.5 μg CFZ
  increase of rate of ROS production over background: 11.5 fold
M. smegmatis membranes [8]; maximum, 0.1-0.2 μg CFZ/μg membrane protein, no KCN
  ROS (resorufin) production rate relative to rate of NADH consumption / electron transport chain: ~18%
M. smegmatis membranes [8]; succinate as electron donor
  CFZ reduction and ROS production with succinate instead of NADH: neither CFZ reduction nor ROS production was observed
Rat mitochondria
  restoration of NADH oxidation: little, if any, restoration of NADH oxidation
M. smegmatis membranes [9]
  CFZ-mediated NADH oxidase rate relative to rate in absence of KCN: 25-70%
  fraction of NADH oxidase activity restored (maximum): 0.25 and 0.40-0.70
  restoration of NADH oxidation: restored a significant level of NADH oxidation
M. smegmatis membranes [10]; 0.5% SDS (final) added
  observed first order rate constant of reoxidation of reduced CFZ: 1.40 ± 0.01 min⁻¹
M. smegmatis membranes [10]; M. smegmatis membranes, NADH
  reduction on NADH addition with membranes: marked loss of CFZ absorbance
M. smegmatis membranes [10]; after agitation, no SDS
  observed first (pseudo) order rate constant of reoxidation of reduced CFZ: 1.25 ± 0.01 min⁻¹
M. smegmatis membranes [10]; assuming 250 μM O2
  second order rate constant for reoxidation of reduced CFZ by O2: ~100 M⁻¹ s⁻¹ and 83 M⁻¹ s⁻¹

## CN(C)CCCN1c2ccccc2Sc2ccc(Cl)cc21 [CPZ, chlorpromazin]
[11]; 400 μM CPZ, 0.2 mM NADH, 2 mM Q0
  effect on NADH-Q0 reductase activity (NADH oxidation): completely ceased
[11]; E. faecalis membranes
  inhibition of KS6-mediated ROS production: complete inhibition

## NNC(=O)c1ccncc1 [INH, isoniazid]
M. smegmatis mc2 155
  effect of antioxidants (α-tocopherol, 4-hydroxy-TEMPO, N-acetylcysteine) on growth inhibition: not altered; also recorded: not sensitive to antioxidants
M. smegmatis mc2 155; 10 μg/ml
  M. smegmatis growth: completely inhibited

## CN1CCN(CCCN2c3ccccc3Sc3ccc(C(F)(F)F)cc32)CC1 [TPZ, trifluoperazine]
[4]
  effect on ROS formation by purified NDH-2 with CFZ: inhibited
M. smegmatis membranes [8]; TPZ 0.2 mM
  effect on CFZ-mediated ROS production: sensitive to TPZ
M. smegmatis membranes [9]
  inhibition of NADH oxidase activity: inhibited CFZ-mediated NADH oxidase activity
